In PMC7180572, “5-Alkylamino-N-phenylpyrazine-2-carboxamides: Design, Preparation, and Antimycobacterial Evaluation” (Molecules, 2020):
Values after ≈ are worked out from the molar mass of the structure shown. Like-named read-outs stand apart in the source and are kept apart here.

Assays:
[1] = tested on: Aspergillus fumigatus ATCC 204305; assay: Antifungal microdilution broth method (EUCAST); format: cell-based; settings: read-out: MIC AF
[2] = tested on: Absidia corymbifera CCM 8077 (Lichtheimia corymbifera); assay: Antifungal microdilution broth method (EUCAST); format: cell-based; settings: read-out: MIC AC
[3] = tested on: Candida albicans ATCC 24433, CCM 8320; assay: Antifungal microdilution broth method (EUCAST); format: cell-based
[4] = tested on: Candida tropicalis ATCC 750, CCM 8264; assay: Antifungal microdilution broth method (EUCAST); format: cell-based; settings: read-out: MIC CT
[5] = tested on: Candida krusei ATCC 6258, CCM 8271; assay: Antifungal microdilution broth method (EUCAST); format: cell-based; settings: Pichia kudriavzevii
[6] = tested on: Trichophyton interdigitale ATCC 9533, CCM 8377; assay: Antifungal microdilution broth method (EUCAST); format: cell-based; settings: read-out: MIC TI
[7] = tested on: Staphylococcus aureus methicillin resistant ATCC 43300, CCM 4750; assay: microbe, parasite or virus in culture; format: cell-based; settings: ATCC 43300 / CCM 4750 / MRSA, read-out: MIC MRSA
[8] = tested on: Enterococcus faecalis ATCC 29212, CCM 4224; assay: Antibacterial microdilution broth method (EUCAST); format: cell-based; settings: read-out: MIC EF
HepG2 cells = assay: HepG2 cytotoxicity, CellTiter 96 (MTS) assay; format: cell-based, human; settings: for IC50: Homo sapiens, HepG2, 24 h, read-out: HepG2 IC50; for SI, selectivity index: IC50 (HepG2)/MIC against Mtb H37Ra (in µM)
[9] = tested on: Candida parapsilosis ATCC 22019, CCM 8260; assay: Antifungal microdilution broth method (EUCAST); format: cell-based; settings: Lodderomyces parapsilosis
[10] = tested on: Escherichia coli ATCC 25922, CCM 3954; assay: Antibacterial microdilution broth method (EUCAST); format: cell-based; settings: read-out: MIC EC
[11] = tested on: Mycobacterium tuberculosis H37Ra ITM-M006710 (ATCC 9431); assay: Microdilution broth, modified Microplate Alamar Blue Assay, whole cell growth inhibition; format: cell-based; settings: Mycobacterium tuberculosis; in vitro, Middlebrook 7H9 broth, resazurin; read-out: MIC Mtb H37Ra
[12] = tested on: Aspergillus flavus CCM 8363; assay: Antifungal microdilution broth method (EUCAST); format: cell-based; settings: read-out: MIC AFla
[13] = tested on: Acinetobacter baumanii ATCC 19606, DSM 30007; assay: Antibacterial microdilution broth method (EUCAST); format: cell-based; settings: Acinetobacter baumannii
[14] = tested on: Mycobacterium aurum DSM 43999 (ATCC 23366); assay: Microdilution broth, modified Microplate Alamar Blue Assay, whole cell growth inhibition; format: cell-based; settings: Mycolicibacterium aurum, read-out: MIC Mycobacterium aurum
[15] = tested on: Mycobacterium smegmatis DSM 43465 (ATCC 607); assay: as above; format: cell-based; settings: Mycolicibacterium smegmatis, read-out: MIC Mycobacterium smegmatis
[16] = tested on: Pseudomonas aeruginosa ATCC 27853, CCM 3955; assay: Antibacterial microdilution broth method (EUCAST); format: cell-based; settings: read-out: MIC PA
[17] = tested on: Staphylococcus epidermidis ATCC 12228, CCM 4418; assay: Antibacterial microdilution broth method (EUCAST); format: cell-based; settings: read-out: MIC SE
[18] = tested on: Staphylococcus aureus spp.aureus ATCC 29213, CCM 4223; assay: Antibacterial microdilution broth method (EUCAST); format: cell-based; settings: read-out: MIC SA
[19] = tested on: Klebsiella pneumoniae ATCC 10031, CCM 4415; assay: Antibacterial microdilution broth method (EUCAST)

## CCCNc1cnc(C(=O)Nc2cccc(O)c2)cn1 [Compound 2a, N-(3-hydroxyphenyl)-5-(propylamino)pyrazine-2-carboxamide]
[1]; ATCC204305, 24 h
  MIC: > 125 µM
[1]; ATCC204305, 48 h
  MIC: > 125 µM
[2]; CCM8077, 24 h
  MIC: > 125 µM
[2]; CCM8077, 48 h
  MIC: > 125 µM
[3]; 24 h, read-out: MIC CA
  MIC: > 125 µM
[3]; 48 h, read-out: MIC CA
  MIC: > 125 µM
[3]; read-out: MIC CA (Candida albicans)
  MIC: > 125 µM
[4]; 24 h
  MIC: > 125 µM
[4]; 48 h
  MIC: > 125 µM
[5]; 24 h, read-out: MIC CK
  MIC: 62.5 µM (≈ 17 µg/mL)
[5]; 48 h, read-out: MIC CK
  MIC: 62.5 µM (≈ 17 µg/mL)
[5]; read-out: MIC CK (Candida krusei)
  MIC: 62.5 µM (≈ 17 µg/mL)
[6]; 72 h
  MIC: > 125 µM
[6]; 120 h
  MIC: > 125 µM
[7]; 24 h
  MIC: > 125 µM
[7]; 48 h
  MIC: > 125 µM
[8]; 24 h
  MIC: > 125 µM
[8]; 48 h
  MIC: > 125 µM
HepG2 cells
  IC50: > 100 µM
  SI, selectivity index: >3.5
[9]; 24 h, read-out: MIC CP
  MIC: > 125 µM
[9]; 48 h, read-out: MIC CP
  MIC: > 125 µM
[9]; read-out: MIC CP (Candida parapsilosis)
  MIC: > 125 µM
[10]; 24 h
  MIC: > 125 µM
[10]; 48 h
  MIC: > 125 µM
[11]
  MIC: 7.81 µg/mL (≈ 28.7 µM)
[12]; CCM8363, 24 h
  MIC: > 125 µM
[12]; CCM8363, 48 h
  MIC: > 125 µM
[13]; 24h
  MIC: > 125 µM
[13]; 48h
  MIC: > 125 µM
[14]
  MIC: ≥ 500 µg/mL
[15]
  MIC: ≥ 500 µg/mL
[16]; 72 h
  MIC: > 125 µM
[16]; 120 h
  MIC: > 125 µM
[17]; 24 h
  MIC: > 125 µM
[17]; 48 h
  MIC: > 125 µM
[18]; 24 h
  MIC: > 125 µM
[18]; 48 h
  MIC: > 125 µM
[19]; 24h
  MIC KP: > 125 µM
[19]; 48h
  MIC KP: > 125 µM
other
  melting point: 194 to 195 °C

## CCCNc1cnc(C(=O)Nc2cccc(C(F)(F)F)c2)cn1 [Compound 1a, 5-(Propylamino)-N-(3-(trifluoromethyl)phenyl)pyrazine-2-carboxamide]
[1]; ATCC204305, 24 h
  MIC: > 125 µM
[1]; ATCC204305, 48 h
  MIC: > 125 µM
[2]; CCM8077, 24 h
  MIC: > 125 µM
[2]; CCM8077, 48 h
  MIC: > 125 µM
[3]; 24 h, read-out: MIC CA
  MIC: > 125 µM
[3]; 48 h, read-out: MIC CA
  MIC: > 125 µM
[4]; 24 h
  MIC: > 125 µM
[4]; 48 h
  MIC: > 125 µM
[5]; 24 h, read-out: MIC CK
  MIC: > 125 µM
[5]; 48 h, read-out: MIC CK
  MIC: > 125 µM
[6]; 72 h
  MIC: > 125 µM
[6]; 120 h
  MIC: > 125 µM
[7]; 24 h
  MIC: > 500 µM
[7]; 48 h
  MIC: > 500 µM
[8]; 24 h
  MIC: > 500 µM
[8]; 48 h
  MIC: > 500 µM
HepG2 cells
  IC50: > 25 µM
  SI, selectivity index: >1.3
[9]; 24 h, read-out: MIC CP
  MIC: > 125 µM
[9]; 48 h, read-out: MIC CP
  MIC: > 125 µM
[10]; 24 h
  MIC: > 500 µM
[10]; 48 h
  MIC: > 500 µM
[11]
  MIC: 6.25 µg/mL (≈ 19.3 µM)
[12]; CCM8363, 24 h
  MIC: > 125 µM
[12]; CCM8363, 48 h
  MIC: > 125 µM
[13]; 24h
  MIC: > 500 µM
[13]; 48h
  MIC: > 500 µM
[14]
  MIC: ≥ 500 µg/mL
[15]
  MIC: ≥ 500 µg/mL
[16]; 72 h
  MIC: > 500 µM
[16]; 120 h
  MIC: > 500 µM
[17]; 24 h
  MIC: > 500 µM
[17]; 48 h
  MIC: > 500 µM
[18]; 24 h
  MIC: > 500 µM
[18]; 48 h
  MIC: > 500 µM
[19]; 24h
  MIC KP: > 500 µM
[19]; 48h
  MIC KP: > 500 µM
other
  melting point: 155 to 156 °C

## CCCCCCCNc1cnc(C(=O)Nc2ccc(O)cc2)cn1 [Compound 3e]
[1]; ATCC204305, 24 h
  MIC: > 250 µM
[1]; ATCC204305, 48 h
  MIC: > 250 µM
[2]; CCM8077, 24 h
  MIC: > 250 µM
[2]; CCM8077, 48 h
  MIC: > 250 µM
[3]; 24 h, read-out: MIC CA
  MIC: > 250 µM
[3]; 48 h, read-out: MIC CA
  MIC: > 250 µM
[4]; 24 h
  MIC: > 250 µM
[4]; 48 h
  MIC: > 250 µM
[5]; 24 h, read-out: MIC CK
  MIC: > 250 µM
[5]; 48 h, read-out: MIC CK
  MIC: > 250 µM
[6]; 72 h
  MIC: > 250 µM
[6]; 120 h
  MIC: > 250 µM
[7]; 24 h
  MIC: > 500 µM
[7]; 48 h
  MIC: > 500 µM
[8]; 24 h
  MIC: > 500 µM
[8]; 48 h
  MIC: > 500 µM
HepG2 cells
  IC50: 44.8 µM
  SI, selectivity index: 3.76
[9]; 24 h, read-out: MIC CP
  MIC: > 250 µM
[9]; 48 h, read-out: MIC CP
  MIC: > 250 µM
[10]; 24 h
  MIC: > 500 µM
[10]; 48 h
  MIC: > 500 µM
[11]
  MIC: 3.91 µg/mL (≈ 11.9 µM)
[12]; CCM8363, 24 h
  MIC: > 250 µM
[12]; CCM8363, 48 h
  MIC: > 250 µM
[13]; 24h
  MIC: > 500 µM
[13]; 48h
  MIC: > 500 µM
[14]
  MIC: ≥ 500 µg/mL
[15]
  MIC: 31.2 µg/mL (≈ 95.2 µM)
[16]; 72 h
  MIC: > 500 µM
[16]; 120 h
  MIC: > 500 µM
[17]; 24 h
  MIC: > 500 µM
[17]; 48 h
  MIC: > 500 µM
[18]; 24 h
  MIC: > 500 µM
[18]; 48 h
  MIC: > 500 µM
[19]; 24h
  MIC KP: > 500 µM
[19]; 48h
  MIC KP: > 500 µM
other
  melting point: 151.4 to 155.4 °C
